The data set concerns the target UBE3A-ATS. Put plainly: mouse, dose not given. The conditions noted are these: ASO.

HELM strings list units from the 5' end as sugar, base in round brackets, then linkage (d deoxyribose, r ribose, m 2'-O-methyl, p phosphodiester). Strings are as the collection lists them; they lack the last nucleoside at the 3' end of the tested compound. [moe] = 2'-O-(2-methoxyethyl) (MOE); [sp] = phosphorothioate linkage; [m5C] = 5-methylcytosine

In the case of “RNA1{[moe](T)[sp].[moe](G)p.[moe](A)p.[moe](T)p.d([m5C])[sp].d(A)[sp].d([m5C])[sp].d(A)[sp].d(T)[sp].d(T)[sp].d(A)[sp].d([m5C])[sp].d([m5C])[sp].d([m5C])[sp].[moe](A)p.[moe](T)p.[moe]([m5C])p.[moe]([m5C])[sp].[moe](G)}$$$$ (last 3' nucleoside missing)”, the 3 h FOB score was 1 score 0-7. In turn, “RNA1{[moe](T)[sp].[moe](G)p.[moe](T)p.[moe](G)p.[moe](A)p.d(G)[sp].d(A)[sp].d(T)[sp].d(A)[sp].d(A)[sp].d(T)[sp].d(T)[sp].d([m5C])[sp].d(A)[sp].d(G)[sp].[moe](G)p.[moe](A)p.[moe](G)[sp].[moe](G)}$$$$ (last 3' nucleoside missing)” returned a 3 h FOB score of 5 score 0-7. The same measure for “RNA1{[moe](A)[sp].[moe](A)p.[moe](A)p.[moe](A)p.[moe](T)p.d([m5C])[sp].d([m5C])[sp].d(A)[sp].d(T)[sp].d(T)[sp].d(T)[sp].d(G)[sp].d(T)[sp].d([m5C])[sp].d([m5C])[sp].[moe](A)p.[moe](G)p.[moe](T)[sp].[moe]([m5C])}$$$$ (last 3' nucleoside missing)”: 2.3 score 0-7; for “RNA1{[moe](T)[sp].[moe](T)p.[moe](G)p.[moe](G)p.[moe](T)[sp].d([m5C])[sp].d(A)[sp].d(T)[sp].d([m5C])[sp].d(T)[sp].d([m5C])[sp].d(G)[sp].d(G)[sp].[moe](G)p.[moe](T)p.[moe](A)[sp].[moe](T)}$$$$ (last 3' nucleoside missing)”: 5 score 0-7; for “RNA1{[moe](T)[sp].[moe](T)p.[moe]([m5C])p.[moe](T)p.[moe](G)p.d(G)[sp].d(A)[sp].d(A)[sp].d(T)[sp].d([m5C])[sp].d(T)[sp].d(T)[sp].d(G)[sp].d(T)[sp].d(A)[sp].[moe](G)p.[moe](A)p.[moe](G)[sp].[moe](G)}$$$$ (last 3' nucleoside missing)”: 3 score 0-7. The same measure for “RNA1{[moe](T)[sp].[moe](G)p.[moe](T)p.[moe]([m5C])p.[moe](G)p.d(A)[sp].d(G)[sp].d(A)[sp].d(A)[sp].d([m5C])[sp].d(T)[sp].d([m5C])[sp].d(A)[sp].d(A)[sp].d(A)[sp].[moe](A)p.[moe](G)p.[moe](G)[sp].[moe](T)}$$$$ (last 3' nucleoside missing)”: 4.5 score 0-7; for “RNA1{[moe]([m5C])[sp].[moe](A)p.[moe](G)p.[moe](T)[sp].d(T)[sp].d(A)[sp].d(G)[sp].d(G)[sp].d(T)[sp].d(T)[sp].d(A)[sp].d(G)[sp].[moe](T)p.[moe](G)p.[moe]([m5C])p.[moe](A)[sp].[moe]([m5C])}$$$$ (last 3' nucleoside missing)”: 2 score 0-7; for “RNA1{[moe](T)[sp].[moe](T)p.[moe]([m5C])p.[moe]([m5C])p.[moe]([m5C])p.d(A)[sp].d(T)[sp].d(T)[sp].d([m5C])[sp].d(A)[sp].d(G)[sp].d([m5C])[sp].d(A)[sp].d([m5C])[sp].d(T)[sp].[moe](T)p.[moe](A)p.[moe](G)[sp].[moe](G)}$$$$ (last 3' nucleoside missing)”: 3.3 score 0-7. For “RNA1{[moe](A)[sp].[moe]([m5C])p.[moe](G)p.[moe]([m5C])p.[moe](A)p.[moe](A)[sp].d(T)[sp].d(G)[sp].d(T)[sp].d(A)[sp].d(T)[sp].d([m5C])[sp].d(A)[sp].d(G)[sp].[moe](G)p.[moe]([m5C])[sp].[moe](A)}$$$$ (last 3' nucleoside missing)” the value was 0 score 0-7; for “RNA1{[moe](T)[sp].[moe]([m5C])p.[moe](A)p.[moe](G)p.[moe](T)p.[moe](T)[sp].d(A)[sp].d(G)[sp].d(G)[sp].d(T)[sp].d(T)[sp].d(A)[sp].d(G)[sp].d(T)[sp].[moe](G)p.[moe]([m5C])[sp].[moe](A)}$$$$ (last 3' nucleoside missing)”, 3 score 0-7; for “RNA1{[moe](G)[sp].[moe](A)p.[moe](G)p.[moe](T)p.[moe](A)p.d(T)[sp].d(A)[sp].d(T)[sp].d(T)[sp].d(A)[sp].d([m5C])[sp].d([m5C])[sp].d(T)[sp].d([m5C])[sp].d([m5C])[sp].[moe](A)p.[moe](G)p.[moe](G)[sp].[moe](T)}$$$$ (last 3' nucleoside missing)”, 1 score 0-7. “RNA1{[moe](T)[sp].[moe](G)p.[moe]([m5C])p.[moe](A)p.[moe](T)p.d(A)[sp].d(A)[sp].d(A)[sp].d(G)[sp].d([m5C])[sp].d([m5C])[sp].d(A)[sp].d(G)[sp].d(G)[sp].d([m5C])[sp].[moe]([m5C])p.[moe](A)p.[moe](G)[sp].[moe](G)}$$$$ (last 3' nucleoside missing)” yielded a 3 h FOB score of 2.2 score 0-7. For “RNA1{[moe](T)[sp].[moe](A)p.[moe](T)p.[moe](T)p.[moe](G)p.d(G)[sp].d(T)[sp].d([m5C])[sp].d(A)[sp].d(T)[sp].d([m5C])[sp].d(T)[sp].d([m5C])[sp].d(G)[sp].d(G)[sp].[moe](G)p.[moe](T)p.[moe](A)[sp].[moe](T)}$$$$ (last 3' nucleoside missing)” the value was 3.3 score 0-7; for “RNA1{[moe](G)[sp].[moe](T)p.[moe](A)p.[moe](T)p.[moe]([m5C])p.d(A)[sp].d(G)[sp].d(G)[sp].d([m5C])[sp].d(A)[sp].d(A)[sp].d([m5C])[sp].d(A)[sp].d(G)[sp].d(A)[sp].[moe](A)p.[moe](T)p.[moe]([m5C])[sp].[moe](T)}$$$$ (last 3' nucleoside missing)”, 4.3 score 0-7. The same measure for “RNA1{[moe]([m5C])[sp].[moe](T)p.[moe](G)p.[moe](T)p.[moe](A)p.d(T)[sp].d(A)[sp].d(G)[sp].d(T)[sp].d(T)[sp].d(T)[sp].d(A)[sp].d([m5C])[sp].d([m5C])[sp].d([m5C])[sp].[moe](A)p.[moe](G)p.[moe](G)[sp].[moe]([m5C])}$$$$ (last 3' nucleoside missing)”: 0 score 0-7; for “RNA1{[moe](G)[sp].[moe](G)p.[moe](A)p.[moe](T)p.[moe](G)p.d(G)[sp].d(T)[sp].d(G)[sp].d(T)[sp].d(G)[sp].d(T)[sp].d(A)[sp].d(T)[sp].d(G)[sp].d(T)[sp].[moe](T)p.[moe](A)p.[moe](T)[sp].[moe](G)}$$$$ (last 3' nucleoside missing)”: 4.7 score 0-7. “RNA1{[moe]([m5C])[sp].[moe](T)p.[moe](G)p.[moe]([m5C])p.[moe](T)p.[moe](T)p.d([m5C])[sp].d(A)[sp].d([m5C])[sp].d([m5C])[sp].d(A)[sp].d(T)[sp].d(T)[sp].d(T)[sp].d(T)[sp].d(G)[sp].[moe](A)p.[moe]([m5C])[sp].[moe]([m5C])}$$$$ (last 3' nucleoside missing)” returned a 3 h FOB score of 0 score 0-7.

The record behind these values is the OligoGym collection.
